Each structure is given as a SMILES string. Values after ≈ are worked out from the molar mass of the structure shown.

The species named for assay [1] is Homo sapiens. Briefly: Compound was tested for anti HIV-1 activity against MT2/G9106 cell/virus strain. It is filed as functional, organism-based.
The subject of assay [2] is CCRF-CEM. Briefly: Compound was tested for anti HIV-1 activity against CEM-SS/OC100 cell/virus strain. Conditions: Homo sapiens. It is filed as functional, cell-based.
The test system of assay [3] is Human immunodeficiency virus 1. Briefly: Compound was tested for inhibition of cytopathic effects against human immunodeficiency virus type 1 (HIV-1). It is filed as functional, organism-based. In general terms: Damage to the host cells serves as the signal in cytopathic effect assays.
Assay [4] concerns Plasmodium falciparum. Briefly: In vitro antimalarial activity against Plasmodium falciparum. It is filed as functional, organism-based.
The species entered for assay [5] is Homo sapiens. Briefly: Compound was tested for anti HIV-1 activity against MT2/A17 cell/virus strain. It counts as functional, organism-based.

For the compound `COc1c2c(cc(O)c1-c1cc(-c3cc(-c4c(O)cc(O)c5c4C[C@@H](C)N[C@@H]5C)c4cc(C)cc(OC)c4c3O)c(O)c3c(OC)cc(C)cc13)C[C@@H](C)N=C2C`, the EC50 came to 6 µM in assay [1], 8 µM in assay [2], 2 µM in assay [3] and 10 µM in assay [5]. The compound further registered an IC50 in assay [4] of 1.1 µg/mL (≈ 1.43 µM).

For orientation: EC50 means the concentration giving half of the maximal effect. Read a high EC50 as a less potent agent. In general, IC50 refers to the concentration needed to halve the response being measured. Low readings indicate greater potency in that assay, high ones weaker potency in that assay.

These data come from ChEMBL document CHEMBL1130871, “Korundamine A, a novel HIV-inhibitory and antimalarial "hybrid" naphthylisoquinoline alkaloid heterodimer from Ancistrocladus korupensis” (Bioorg Med Chem Lett, 1998).
